Turning to `CNn1c(C)nn(C(=O)NC(C)(C)C)c1=O`, the melting point (commonly the temperature, or range, at which the solid turns liquid) turned out to be 150 °C.

As for `N#Cc1cccc2c1OCC2`, the melting point lay in the range of 54.5 to 56 °C.

On to `CCC(C)(C)Nc1c(N(Cc2ccc(C#N)cc2Cl)C(C)=O)c(=O)c1=O`, for which the melting point was 150 to 151 °C.

In turn, `CCSc1ccc(-c2c(Cl)ncn2-c2ccc(S(C)(=O)=O)cc2)cc1` had a melting point of 181 to 185 °C.

Compound `Cn1cnc(S(=O)(=O)Nc2cccc(C=C3c4ccccc4CCc4ccccc43)c2)c1` displayed a melting point of 257 °C.

In the case of `O=C(O)CCCNC(=O)c1ccc(Cl)cc1O`, the melting point was in the range of 131 to 133 °C.

Take `c1ccc(CN2c3ccccc3-c3noc4c3C2CCC4)cc1` (stereo unspecified): the melting point lay in the range of 162 to 164 °C.

On to `c1cn(CCc2nc(-c3ccc4c(c3)OCO4)c3cc4c(cc3n2)OCO4)cn1`, for which the melting point is 160 to 163 °C.

In turn, `CNC(=O)C(=NOC)c1ccccc1COc1ncc(Br)cc1C` came in with a melting point of 115 to 116 °C.

Compound `CCOC(=O)CCN(c1ccccc1)S(=O)(=O)c1ccc2c(c1)nc(CNc1ccc(C#N)cc1)n2C` had a melting point of 188 to 191 °C.

In the case of `Nc1nc(N)c2c(I)nn(C3CC(O)C(CO)O3)c2n1` (stereo unspecified), the melting point is 154 °C.

On to `COc1ccc(OC)c2c(Nc3ccc(C)c(O)c3)c(C#N)cnc12`, for which the melting point is 240 to 242 °C.

Compound `CCOC(=O)c1c(C(F)(F)F)nc(-c2ccccc2)c(-c2ccccc2)c1O` had a melting point of 130 °C.

Consider `COC(=O)C1Cc2cc(-c3ccc(C(C)O)cc3)ccc2O1` (stereo unspecified), for which the melting point lay in the range of 98 to 100 °C.

`CCOC(=O)c1cc(=O)c2c(ccc3nc(C(=O)OC)cc(Cl)c32)o1` gave a melting point of 193 °C.

In turn, `COc1ccc(S(=O)(=O)C(c2cc(F)ccc2F)c2cc(N)ncc2Cl)cc1` (stereo unspecified) yielded a melting point of 153 to 155 °C.

Compound `O=C(Nc1ccc(Cl)cc1)C(O)c1ccccc1Cl` (stereo unspecified) returned a melting point of 120 °C.

In the case of `CC1=Nc2ccccc2N(Cc2ccccc2)C(=O)C1Cc1ccccc1` (stereo unspecified), the melting point fell in the range of 140 to 141 °C.

`Cc1cc2c(-c3cccc(C(F)(F)F)c3)nc(Cl)nc2s1` yielded a melting point of 108 °C.

For the compound `C=CNC(=O)n1sc(OCC)nc1=O`, the melting point amounted to 123 °C.

Consider `CC(C)NCCCOc1ccc(O)cc1`, for which the melting point lay in the range of 92 to 100 °C.

`NC(=O)c1nccc(-c2ccc(Oc3ccc(F)cc3)cc2)n1` showed a melting point of 180 to 182 °C.

In turn, `CC(CNC(=O)CN1C(=O)CCC1C)N1CCCCC1` (stereo unspecified) came in with a melting point of 111 to 112 °C.

Compound `O=C(c1[nH]ncc1-c1csc(Nc2ncccn2)n1)C1CC1` displayed a melting point of 244 °C.

In the case of `Cc1cc(C)c(-n2ccc3c(Cl)nnc(Cl)c32)c(C)c1`, the melting point lay within 169 to 170 °C.

In turn, `CCOC(=O)c1cnc2ccnn2c1O` registered a melting point of 81 °C.

In turn, `CCc1nn(C2CCCC2)c2cc(C(=O)NCCc3ccncc3)ccc12` gave a melting point of 123 to 126 °C.

Consider `CNS(=O)(=O)c1ccc(C2=NC(C)(C)Cc3cc(OC)c4c(c32)CC(C)(C)O4)cc1`, for which the melting point lay in the range of 146 to 148 °C.

In turn, `Cc1cncn1Cc1ccc2ccc3c(c2c1)C(C)(C)C(=O)O3` showed a melting point of 88 to 91 °C.

`CNC(=O)C(C)(C)OCc1cc(-c2ccc(Cl)cc2)no1` had a melting point of 93 to 94 °C.

On to `Cc1c(Cc2cccnc2)oc2ccc(C(=O)O)cc12`, for which the melting point was 219 to 221 °C.

Take `OC(COc1cccc(-c2cc[nH]n2)c1)CN1CCN(c2ccc(Cl)cc2)CC1` (stereo unspecified): the melting point was 152 to 153 °C.

Turning to `O=C1N=NC(CO)=C1c1ccccc1`, the melting point fell in the range of 165 to 168 °C.

The compound `COc1ccc2c(c1)C(Cl)CC1C2C(O)CC2(C)C(O)CCC12` (stereo unspecified) registered a melting point of 150 to 151 °C.

Turning to `COC(=O)c1ccc(-c2nc(-c3ccc(OC(F)(F)F)cc3)cs2)cc1`, the melting point lay in the range of 138 to 139 °C.

`Cc1nc(CC(C)C)c(CN)c(-c2ccc(Cl)cc2)c1C(=O)OC(C)(C)C` registered a melting point of 81 to 83 °C.

On to `COc1cc(CCC(=O)CC(=O)c2ccc(-c3ccccc3)cc2)ccc1O`, for which the melting point was 118 to 119 °C.

Compound `Cn1c(C(F)(F)F)cc(=O)n(-c2ccc3snc(C(Cl)Cl)c3c2)c1=O` showed a melting point of 148 to 149 °C.

Regarding `CC(C)(Cc1ccc(F)cc1)NC(=O)c1coc(C2C3CCC(O3)C2Cc2ccccc2CCC(=O)O)n1` (stereo unspecified), the melting point came to 68 °C.

For `CCCC=NNc1cc2c(nn1)CCN(C(=O)OCC)C2`, the melting point lay within 142 to 146 °C.

The compound `O=C1c2c(O)cccc2C(c2ccccc2)c2cccc(O)c21` yielded a melting point of 193 to 194 °C.

With `CCOC(=O)C(=O)Nc1cc(CC)c(C(=O)OCC)s1`, the melting point was in the range of 103 to 105 °C.

`OCc1cccn2cc(-c3ccccc3)nc12`: the melting point fell in the range of 85 to 87 °C.

`CC(=O)Oc1ccc(-c2ccc3oc(C(=O)O)cc3c2)cc1` displayed a melting point of 251 to 254 °C.

`COC(C)(C)C(=O)COc1ccc(Cl)cc1Cl`: the melting point was in the range of 45.5 to 47.5 °C.

`COC=C(C(=O)OC)N(C)N1CSC(Br)=C1c1ccc(Br)cc1` displayed a melting point of 112 °C.

As for `CC(C)CN(C[C@H](O)COc1cccc2[nH]c3ccccc3c12)c1ccc(Oc2ccc(C(N)=O)cn2)cc1`, the melting point lay within 126 to 142 °C.

Regarding `Cc1c(-c2ccccc2)oc2c(C#N)cccc12`, the melting point lay in the range of 86 to 87 °C.

With `CCn1c2c(c3ccccc31)Cc1c(CO)c(CO)c(C)n1C2`, the melting point fell in the range of 216 to 217 °C.

Turning to `Nc1ccccc1N(C=O)CCCCO`, the melting point fell in the range of 77 to 79 °C.

`COc1ccccc1-n1c(CCl)nc2ccccc2c1=O` registered a melting point of 193 to 194 °C.

Take `COC(=O)c1cc(-c2cccc(C(F)(F)F)c2)ns1`: the melting point was in the range of 82 to 83 °C.

The compound `COc1ccc(NC(=O)c2ccc(Cl)c(Cl)c2)cc1NS(=O)(=O)c1ccc(C)cc1` displayed a melting point of 228 to 230 °C.

With `O=c1cc2c(nn1-c1ccc(Cl)cc1)-c1cc(CO)sc1CC2`, the melting point was in the range of 195 to 197 °C.

`O=[N+]([O-])c1cccc(-c2ncc[nH]2)c1` showed a melting point of 193 to 194 °C.

Take `O=C(NNc1ccccc1)c1ccc(F)cc1`: the melting point fell in the range of 181 to 186 °C.

Turning to `CC1=N/C(=C\c2cccnc2)C(=O)O1`, the melting point was determined as 173 °C.

In turn, `CC(C)(C)OC(=O)NNC(=S)Nc1ccc(F)cc1` gave a melting point of 158 to 160 °C.

`CCCCCCCOc1ccc(C2CC(CCCCCC)C(=O)O2)cc1` (stereo unspecified) yielded a melting point of 45.9 to 47 °C.

With `CC1(c2cc(Cl)nnc2Cl)CC1(Cl)Cl` (stereo unspecified), the melting point lay within 78 to 79 °C.

For `CCCCCCOc1ccc(C(=O)Nc2ccc(-n3nc(C(F)(F)F)cc3C(F)(F)F)cc2)cc1`, the melting point lay in the range of 153 to 155 °C.

The compound `c1ccc(N2CCN(Cc3n[nH]c4ccccc34)CC2)nc1` yielded a melting point of 148 to 150 °C.

Take `Cc1c(-c2ccc(O)cc2)n(Cc2ccc(OCCN3CCCCC3C)cc2)c2ccc(O)cc12` (stereo unspecified): the melting point is 121 to 123 °C.

As to `CCCCCC(=O)Nc1cccc2c1C1(COc3cc4c(cc31)OCCO4)C(=O)N2C` (stereo unspecified), the melting point is 151 to 153 °C.

For the compound `CCCCc1cn(CCC(C)C)c(=O)n1Cc1ccc(-c2ccccc2-c2nnn[nH]2)nc1`, the melting point fell in the range of 168 to 170 °C.

`CC(C)(C)c1ccc(CNC(=O)NCc2ccc(NS(C)(=O)=O)c(F)c2)cc1`: the melting point came to 95 °C.

The record behind these values is a melting point compilation (Tetko et al.; mined from patent text by program, amines drawn as free bases though some values may be those of a salt).
